# Experimental data taken from patent publication US8986722B2, “Pest control composition” (priority 2010, dated 2015).
# Columns and labels:
# [1] = Surface tension by Wilhelmy method (plate method); format: physicochemical; details: 20° C., 0.1% by mass aqueous solution
# Experimental: For surface tension in the present description, a numerical value measured by Wilhelmy method (plate method) is used. The principle of measurement is as described below. When a platinum plate is contacted with the surface of a liquid, the liquid rises along the plate. Then, surface tension acts along the periphery of the plate and a force drawing the plate into the liquid is generated. Thus in the method, this drawing force is measured and the surface tension is measured. Specifically, a 0.1% by mass aqueous solution of a sample nonionic surfactant is made as a measurement sample, which is measured by an automatic surface tension measuring machine (for example, DY-300 automatic surface tension meter, manufactured by Kyowa Interface Science Corp., Ltd.) by Wilhelmy method shown above at a temperature of 20° C. to determine the surface tension. […] The nonionic surfactant has a property to decrease the surface tension of an aqueous solution. For this reason, when an aqueous solution containing this adheres to the surface of another substance, “wettability” at said surface is improved. As a result, a diluent of the present invention composition containing said nonionic surfactant easily adheres to the surface of target pests and the surface of spray-target agricultural crops.
# [2] = HLB of polyglycerol fatty acid ester, Griffin formula 20(1−S/A); format: physicochemical; details: from saponification and acid values
# Excerpt: The HLB (Hydrophile-Lipophile Balance) is an index indicating degrees of hydrophilic properties and lipophilic properties of a surfactant and being shown by a numerical value of 0 to 20. […] Therefore, a surfactant having a low HLB is apt to adapt to a hydrophobic system and a surfactant having a high HLB is apt to adapt to a hydrophilic system.
# As the HLB value of said polyglycerol fatty acid ester, a numerical value derived from the following calculation method which is an empirical formula by Griffin is applied. In this regard, as the below-described saponification and acid values, values analyzed in accordance with general test procedures of standards for food additives and standards of quasi-drug ingredients are used. HLB value=20(1−S/A)
# S: Saponification value for an ester of a surfactant.
# A: Acid value of a fatty acid constituting a surfactant.
HLB [2],Compound,also measured
–,"CCCCCCCCOC(=O)CC(C(=O)OCCCCCCCC)S(=O)(=O)O (stereo not drawn) [Newkalgen EP-70G, dioctyl sulfosuccinate]",surface tension [1]: 28 mN/m
about 3,decaglycerol dodecaoleic acid ester,–
about 5,decaglycerol heptaoleic acid ester,–
about 4,decaglycerol nonaoleic acid ester,–
about 5,decaglycerol octaoleic acid ester,–
about 3,decaglycerol undecaoleic acid ester,–
about 4,diglycerol dioleic acid ester,–
about 2,diglycerol tetraoleic acid ester,–
about 3,diglycerol trioleic acid ester,–
3,hexaglycerol condensed ricinoleate [SY Glyster CR-500],HLB ([2]; listed as hexaglycerol-condensed ricinoleic acid ester): about 3
about 4,hexaglycerol heptaoleic acid ester,–
about 4,hexaglycerol hexaoleic acid ester,–
about 4,hexaglycerol octaoleic acid ester,–
3,polyglycerol condensed ricinoleate [SY Glyster CRS-75],–
about 2,tetraglycerol hexaoleic acid ester,–
about 2,tetraglycerol pentaoleic acid ester,–
about 4,tetraglycerol tetraoleic acid ester,–
about 5,tetraglycerol trioleic acid ester,–

Compound,HLB [2],also measured
decaglycerol decaoleate [SY Glyster DAO-7S],3.2,HLB ([2]; listed as decaglycerol decaoleic acid ester): about 4
decaglycerol erucate [SY Glyster NE-750],3.2,–
decaglycerol erucate [SY Glyster OE-750],3.7,–
decaglycerol monocaprate [SY Glyster MCA-750],16,HLB ([2]; listed as decaglycerol monocapric acid ester): about 16
diglycerol monooleate [S-FACE O-201P],8,HLB ([2]; listed as diglycerol monooleic acid ester): about 8
hexaglycerol monooleate [SY Glyster MO-5S],11.6,HLB ([2]; listed as hexaglycerol monooleic acid ester): about 11
hexaglycerol pentaoleate [SY Glyster PO-5S],4.9,HLB ([2]; listed as hexaglycerol pentaoleic acid ester): about 5
tetraglycerol monolaurate [SY Glyster ML-310],10.3,HLB ([2]; listed as tetraglycerol monolauric acid ester): about 10
